Biological target: T1, BTK (Homo sapiens, UniProt Q06187)
T1 construct: endogenous in cells; host or cells: TMD8 cells
Assay: Cellular BTK HTRF assay (BTK degradation) in TMD8 cells
Format: cell-based
Settings: four hours incubation, Total-BTK HTRF relative to DMSO-treated cells
Description: Example 66: BTK Degradation Assay
TMD8 cells were obtained from Tokyo Medical and Dental University and were grown in alpha-MEM (Fisher 12571063) supplemented with 10% heat-inactivated FBS (Corning Premium Fetal Bovine Serum from Fisher, MT35015CV).
Compounds of the present invention were added to 50,000 TMD8 cells in round-bottom 96 well plates with a final DMSO concentration of […] and were incubated at 37° C. 5% CO2 for four hours. BTK levels were determined using Cisbio Total-BTK HTRF ([…] Time-Resolved Fluorescence) kit (63ADK064PEG) according to manufacturer's protocol. Briefly, cells were incubated in 1× supplied lysis buffer for 30 minutes. In an opaque white low volume 96 well plate (Cisbio, 66PL96005), cell lysate was combined with two different specific BTK antibodies, one conjugated with Eu^3+-Cryptate FRET donor and one conjugated with d2 FRET acceptor. Assay controls include wells containing cell lysate with only the Eu^3+-Cryptate FRET donor antibody and wells containing both HTRF antibodies and lysis buffer without cells or control lysate provided by Cisbio. HTRF ratio was calculated as (acceptor signal at 665 nm/donor signal at 620 nm)×10^4. Background HTRF levels were determined from the control well containing the donor, but no acceptor, antibody. Background HTRF levels were subtracted from all samples. Readouts were reported as HTRF levels relative to HTRF levels of DMSO-treated cells. Four-parameter non-linear regressions were performed in GraphPad Prism 7.02 to obtain DC50 values. DC50 values are provided in Table 3, wherein A<5.0 nM, 5.0 nM≤B≤15 nM, and 15 nM<C.

T1 sequence (Q06187 whole entry): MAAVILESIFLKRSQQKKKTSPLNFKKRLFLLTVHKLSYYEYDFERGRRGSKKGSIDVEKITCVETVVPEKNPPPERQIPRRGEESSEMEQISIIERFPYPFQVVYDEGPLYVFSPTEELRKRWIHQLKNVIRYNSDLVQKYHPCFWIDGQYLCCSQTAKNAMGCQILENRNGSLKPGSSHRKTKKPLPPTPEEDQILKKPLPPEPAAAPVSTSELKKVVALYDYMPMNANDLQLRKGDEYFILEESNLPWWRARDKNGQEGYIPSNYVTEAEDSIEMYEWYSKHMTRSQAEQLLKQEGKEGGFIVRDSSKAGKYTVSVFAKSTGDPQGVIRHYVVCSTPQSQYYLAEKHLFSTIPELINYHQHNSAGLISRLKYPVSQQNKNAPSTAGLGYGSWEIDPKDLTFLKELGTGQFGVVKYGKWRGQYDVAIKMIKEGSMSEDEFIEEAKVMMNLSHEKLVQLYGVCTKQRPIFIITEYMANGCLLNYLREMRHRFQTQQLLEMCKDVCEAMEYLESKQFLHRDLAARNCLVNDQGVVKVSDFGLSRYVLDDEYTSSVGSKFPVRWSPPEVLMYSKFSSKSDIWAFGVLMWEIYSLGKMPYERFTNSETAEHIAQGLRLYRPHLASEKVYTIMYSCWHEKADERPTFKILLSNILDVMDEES

With `CN1CCN([C@H]2CCCN(c3cnc(C(N)=O)c(Nc4ccc(N5CCC6(CCCN(Cc7ccc8c(c7)C(=O)N(N7CCC(=O)NC7=O)C8=O)C6)CC5)cc4)n3)C2)C1=O` [Compound 108] the DC50 was 5 to 15 nM.
In the case of `CN1CCN([C@H]2CCCN(c3cnc(C(N)=O)c(Nc4ccc(N5CCC6(CC5)CCN(c5ccc7c(c5)C(=O)N(C5CCC(=O)NC5=O)C7=O)C6)cc4)n3)C2)C1=O` (some centres unmarked) [Compound 109], the DC50 is reported as under 5 nM.
Work on `CN1CCN([C@H]2CCCN(c3cnc(C(N)=O)c(Nc4ccc(N5CCN(CCCCc6cccc7c6CN(C6CCC(=O)NC6=O)C7=O)CC5)nc4)n3)C2)C1=O` (some centres unmarked) [Compound 110] yielded a DC50 of under 5 nM.
Compound `CN1CCN([C@H]2CCCN(c3cnc(C(N)=O)c(Nc4ccc(N5CCCC6(C5)CN(c5ccc7c(c5)C(=O)N(C5CCC(=O)NC5=O)C7=O)C6)cc4)n3)C2)C1=O` (some centres unmarked) [Compound 111] has a DC50 of 5 to 15 nM.
`CN1CCN([C@H]2CCCN(c3cnc(C(N)=O)c(Nc4ccc(N5CCC6(CC5)CN(c5ccc7c(c5)C(=O)N(N5CCC(=O)NC5=O)C7=O)C6)cc4)n3)C2)C1=O` [Compound 112] was tested, and the DC50 was under 5 nM.
Work on `CN1CCN([C@@H]2CCCN(c3cnc(C(N)=O)c(Nc4ccc(N5CCN(C[C@H]6CCN(c7ccc8c(c7)C(=O)N(C7CCC(=O)NC7=O)C8=O)C6)CC5)nc4)n3)C2)C1=O` (some centres unmarked) [Compound 113] yielded a DC50 of under 5 nM.
In the case of `CN1CCN([C@@H]2CCCN(c3cnc(C(N)=O)c(Nc4ccc(N5CC6CN(CC7CCN(c8ccc9c(c8)C(=O)N(N8CCC(=O)NC8=O)C9=O)CC7)CC6C5)cc4)n3)C2)C1=O` (some centres unmarked) [Compound 114], the DC50 is reported as under 5 nM.
`CN1CCN([C@@H]2CCCN(c3cnc(C(N)=O)c(Nc4ccc(C5CCN(C[C@H]6CCN(c7ccc8c(=O)n(C9CCC(=O)NC9=O)ccc8c7)C6)CC5)cc4)n3)C2)C1=O` (some centres unmarked) [Compound 115] was tested, and the DC50 was under 5 nM.
`CN1CCN([C@@H]2CCCN(c3cnc(C(N)=O)c(Nc4ccc(C5CCN(CC6CN(c7ccc8c(=O)n(C9CCC(=O)NC9=O)ccc8c7)C6)CC5)cc4)n3)C2)C1=O` (some centres unmarked) [Compound 116] was tested, and the DC50 was under 5 nM.
`CN1CCN([C@@H]2CCCN(c3cnc(C(N)=O)c(Nc4ccc(C5CCN(C[C@H]6CCN(c7ccc8c(c7)CN(C7CCC(=O)NC7=O)C8=O)C6)CC5)cc4)n3)C2)C1=O` (some centres unmarked) [Compound 117] gave a DC50 of under 5 nM.
For `CN1CCN([C@@H]2CCCN(c3cnc(C(N)=O)c(Nc4ccc(C5CN(CC6CCN(c7cnn(C8CCC(=O)NC8=O)c(=O)c7)CC6)C5)cc4)n3)C2)C1=O` (some centres unmarked) [Compound 118], the DC50 was under 5 nM.
For `CN1CCN([C@@H]2CCCN(c3cnc(C(N)=O)c(Nc4ccc(C5CN(CC6CCN(c7ccc(-c8nn(C9CCC(=O)NC9=O)c(=O)n8C)cc7)CC6)C5)cc4)n3)C2)C1=O` (some centres unmarked) [Compound 119], the DC50 was under 5 nM.
Work on `CN1CCN([C@@H]2CCCN(c3cnc(C(N)=O)c(Nc4ccc(C5CCN(CC6CCN(c7cnn(C8CCC(=O)NC8=O)c(=O)c7)CC6)CC5)cc4)n3)C2)C1=O` (some centres unmarked) [Compound 120] yielded a DC50 of under 5 nM.
In the case of `CN1CCN([C@@H]2CCCN(c3cnc(C(N)=O)c(Nc4ccc(C5CCN(CC6CCN(c7ccc(-c8nn(C9CCC(=O)NC9=O)c(=O)n8C)cc7)CC6)CC5)cc4)n3)C2)C1=O` (some centres unmarked) [Compound 121], the DC50 is reported as under 5 nM.
Compound `NC(=O)c1ncc(N2CCC[C@H](N3CCCC3=O)C2)nc1Nc1ccc(C2CCN(CC3CCN(c4ccc5c(c4)CCN(C4CCC(=O)NC4=O)C5=O)CC3)CC2)cc1` (some centres unmarked) [Compound 122] has a DC50 of under 5 nM.
Compound `NC(=O)c1ncc(N2CCCCC2)nc1Nc1ccc(N2CCC3(CC2)CCN(c2ccc4c(c2)C(=O)N(C2CCC(=O)NC2=O)C4=O)CC3)cc1` (centres unmarked) [Compound 124] has a DC50 of over 15 nM.
For `NC(=O)c1ncc(-n2cccn2)nc1Nc1ccc(C2CCN(C[C@H]3CCN(c4ccc5c(c4)C(=O)N(C4CCC(=O)NC4=O)C5=O)C3)CC2)cc1` (some centres unmarked) [Compound 125], the DC50 was under 5 nM.
With `NC(=O)c1ncc(N2CCCC3(COC3)C2)nc1Nc1ccc(C2CCN(C[C@H]3CCN(c4ccc5c(c4)C(=O)N(C4CCC(=O)NC4=O)C5=O)C3)CC2)cc1` (some centres unmarked) [Compound 126] the DC50 was under 5 nM.
In the case of `NC(=O)c1ncc(-n2ccc(C(F)(F)F)n2)nc1Nc1ccc(C2CCN(CC3CCN(c4ccc5c(=O)n(C6CCC(=O)NC6=O)ccc5c4)CC3)CC2)cc1` (centres unmarked) [Compound 127], the DC50 is reported as over 15 nM.
`NC(=O)c1ncc(-n2ccc(C(F)(F)F)n2)nc1Nc1ccc(C2CCN(C[C@H]3CCN(c4ccc5c(c4)C(=O)N(C4CCC(=O)NC4=O)C5=O)C3)CC2)cc1` (some centres unmarked) [Compound 128] was tested, and the DC50 was over 15 nM.
Compound `CN1CCN([C@H]2CCCN(c3cnc(C(N)=O)c(Nc4ccc(C5CCN(CC6CCN(c7ccc(NC8CCC(=O)NC8=O)cn7)CC6)CC5)cc4)n3)C2)C1=O` (some centres unmarked) [Compound 129] has a DC50 of under 5 nM.
`CN1CCN([C@H]2CCCN(c3cnc(C(N)=O)c(Nc4ccc(C5CCN(CC6CCN(c7ccc(C(=O)NC8CCC(=O)NC8=O)cc7)CC6)CC5)cc4)n3)C2)C1=O` (some centres unmarked) [Compound 130] gave a DC50 of under 5 nM.
`Cn1cc(Nc2nc(N3CCC[C@H](N4CC5(CN(CC6CCN(c7ccc(NC8CCC(=O)NC8=O)nc7)CC6)C5)OC4=O)C3)cnc2C(N)=O)cn1` (some centres unmarked) [Compound 132] was tested, and the DC50 was under 5 nM.
`NC(=O)c1ncc(N2CCCCC2)nc1Nc1ccc(C2CCN(CC3CCN(c4ccc5c(=O)n(C6CCC(=O)NC6=O)ccc5c4)CC3)CC2)cc1` (centres unmarked) [Compound 133] gave a DC50 of under 5 nM.
`CN1CCN([C@@H]2CCCN(c3cnc(C(N)=O)c(Nc4ccc(C5CCN(C[C@H]6CCN(c7ccc8c(=O)n(C9CCC(=O)NC9=O)ccc8c7)C6)CC5)cc4)n3)C2)C1=O` (some centres unmarked) [Compound 134] was tested, and the DC50 was under 5 nM.
Compound `Cn1c(-c2ccc(N3CC(CN4CCC(c5ccc(Nc6nc(N7CCC[C@H](N8CCCC8=O)C7)cnc6C(N)=O)cc5)CC4)C3)cc2)nn(C2CCC(=O)NC2=O)c1=O` (some centres unmarked) [Compound 135] has a DC50 of under 5 nM.
Compound `CN1CCN([C@H]2CCCN(c3cnc(C(N)=O)c(Nc4ccc(C5CCN(CC6CN(c7ccc(-c8nn(C9CCC(=O)NC9=O)c(=O)n8C)cc7)C6)CC5)cc4)n3)C2)C1=O` (some centres unmarked) [Compound 136] has a DC50 of under 5 nM.
With `Cn1cc(Nc2nc(N3CCC[C@@H](N4CCC5(CN(CC6CCN(c7ccc8c(c7)C(=O)N(C7CCC(=O)NC7=O)C8=O)CC6)C5)C4=O)C3)cnc2C(N)=O)cn1` (some centres unmarked) [Compound 137] the DC50 was under 5 nM.
For `CN1CCN([C@@H]2CCCN(c3cnc(C(N)=O)c(Nc4ccc(C5CCN(CC6CN(c7ccc8c(=O)n(C9CCC(=O)NC9=O)ccc8c7)C6)CC5)cc4)n3)C2)C1=O` (some centres unmarked) [Compound 138], the DC50 was under 5 nM.
Compound `NC(=O)c1ncc(N2CCC[C@H](N3CCCC3=O)C2)nc1Nc1ccc(C2CN(CC3CCN(c4ccc5c(=O)n(C6CCC(=O)NC6=O)ccc5c4)CC3)C2)cc1` (some centres unmarked) [Compound 139] has a DC50 of under 5 nM.
For `NC(=O)c1ncc(N2CCC[C@H](N3CCCC3=O)C2)nc1Nc1ccc(C2CN(C[C@@H]3CCN(c4ccc5c(c4)C(=O)N(C4CCC(=O)NC4=O)C5=O)C3)C2)cc1` (some centres unmarked) [Compound 140], the DC50 was under 5 nM.
For `Cn1c(N2CCC(CN3CC(c4ccc(Nc5nc(N6CCC[C@H](N7CCCC7=O)C6)cnc5C(N)=O)cc4)C3)CC2)nn(C2CCC(=O)NC2=O)c1=O` (some centres unmarked) [Compound 141], the DC50 was under 5 nM.
Compound `CC1CCN([C@H]2CCCN(c3cnc(C(N)=O)c(Nc4ccc(C5CCN(C[C@@H]6CCN(c7ccc(-c8nn(C9CCC(=O)NC9=O)c(=O)n8C)cc7)C6)CC5)cc4)n3)C2)C1=O` (some centres unmarked) [Compound 142] has a DC50 of under 5 nM.
For `Cn1c(-c2ccc(N3CCC(CN4CCC(c5ccc(Nc6nc(N7CCC[C@H](N8CCCC8=O)C7)cnc6C(N)=O)cc5)CC4)CC3)cc2)nn(C2CCC(=O)NC2=O)c1=O` (some centres unmarked) [Compound 143], the DC50 was under 5 nM.
Work on `NC(=O)c1ncc(N2CCC[C@H](N3CCCC3=O)C2)nc1Nc1ccc(C2CCN(CC3CCN(c4ccc5c(=O)n(C6CCC(=O)NC6=O)ccc5c4)CC3)CC2)cc1` (some centres unmarked) [Compound 144] yielded a DC50 of under 5 nM.
`Cn1cc(Nc2nc(N3CCC[C@@H](N4CCC5(CN(CC6CCN(c7ccc8c(=O)n(C9CCC(=O)NC9=O)ccc8c7)CC6)C5)C4=O)C3)cnc2C(N)=O)cn1` (some centres unmarked) [Compound 145] gave a DC50 of under 5 nM.
`NC(=O)c1ncc(N2CCCC(N3CCCC3=O)C2)nc1Nc1ccc(C2CN(C[C@@H]3CCN(c4ccc5c(c4)C(=O)N(C4CCC(=O)NC4=O)C5=O)C3)C2)cc1` (some centres unmarked) [Compound 146] was tested, and the DC50 was under 5 nM.
For `Cn1cc(Nc2nc(N3CCC[C@@H](N4CC5(CN(CC6CCN(c7ccc8c(=O)n(C9CCC(=O)NC9=O)ccc8c7)CC6)C5)OC4=O)C3)cnc2C(N)=O)cn1` (some centres unmarked) [Compound 147], the DC50 was under 5 nM.
`NC(=O)c1ncc(-c2nccs2)nc1Nc1ccc(C2CCN(C[C@@H]3CCN(c4ccc5c(c4)C(=O)N(C4CCC(=O)NC4=O)C5=O)C3)CC2)cc1` (some centres unmarked) [Compound 148] showed a DC50 of under 5 nM.
Work on `NC(=O)c1ncc(N2CCCCC2)nc1Nc1ccc(C2CCN(C[C@@H]3CCN(c4ccc5c(c4)C(=O)N(C4CCC(=O)NC4=O)C5=O)C3)CC2)cc1` (some centres unmarked) [Compound 149] yielded a DC50 of under 5 nM.
For `NC(=O)c1ncc(-c2nccs2)nc1Nc1ccc(N2CCC3(CC2)CCN(c2ccc4c(c2)C(=O)N(C2CCC(=O)NC2=O)C4=O)CC3)cc1` (centres unmarked) [Compound 151], the DC50 was over 15 nM.
Compound `CN1CCN(C2CCCN(c3cnc(C(N)=O)c(Nc4ccc(C5CCN(CC6CCN(c7ccc8c(c7)CN(C7CCC(=O)NC7=O)C8=O)C6)CC5)cc4)n3)C2)C1=O` (centres unmarked) [Compound 152] has a DC50 of under 5 nM.
With `NC(=O)c1ncc(N2CCC[C@@H](N3CCOC3=O)C2)nc1Nc1ccc(C2CCN(CC3CCN(c4ccc5c(=O)n(C6CCC(=O)NC6=O)ccc5c4)CC3)CC2)cc1` (some centres unmarked) [Compound 153] the DC50 was under 5 nM.
In the case of `CN1CCN([C@@H]2CCCN(c3cnc(C(N)=O)c(Nc4ccc(C5CCN(C[C@H]6CC[C@H](Nc7cccc8c7C(=O)N(C7CCC(=O)NC7=O)C8=O)CC6)CC5)cc4)n3)C2)C1=O` (some centres unmarked) [Compound 154], the DC50 is reported as under 5 nM.

From patent US11479556B1, “Bifunctional compounds for degrading BTK via ubiquitin proteosome pathway” (NURIX THERAPEUTICS, INC., priority 2018, dated 2022)
